# Laboratory results as given in patent publication US20250345350A1, “TREATING PAIN ASSOCIATED WITH CENTRAL SENSITIZATION” (Medicon Pharmaceuticals, Inc., priority 2022, published 2025).
# Where two headings read alike, the source gives them in different places.
# Key:
# [1] = test system: paclitaxel-induced pain associated with central sensitization in C57BL/6J mice; experiment: Mechanical allodynia (von Frey), paclitaxel-induced pain, topical PS 8% (Example 2); type: in vivo, mouse
# Source text: (§1) Food and water were available ad libitum.
# (§2) Paw withdrawn, licking or shaking were considered positive responses.
# [2] = test system: vincristine-induced pain associated with central sensitization in C57BL/6J mice; experiment: Mechanical allodynia (von Frey), vincristine-induced pain, topical PS 8% (Example 2); type: in vivo, mouse
# Source text: as §1
# (§3) Protocol for the Treatment of Established Pain Associated with Central Sensitization with PS
# as §2
# [3] = test system: oxaliplatin-induced pain associated with central sensitization in C57BL/6J mice; experiment: Mechanical allodynia (von Frey), oxaliplatin-induced pain, topical PS 8% (Example 2); type: in vivo, mouse
# Source text: as §1, §3, §2
# [4] = Safety of PS ointment applied to hind paws of mice; type: in vivo, mouse; settings: PS ointment thrice daily to the hind paws of mice for up to 22 days
# Source text: This finding is in keeping with the known safety profile of PS.
# [5] = test system: paclitaxel-induced central sensitization in C57/BL/6J mice; experiment: Cold allodynia (acetone test), paclitaxel model (Example 3); type: in vivo, mouse; settings: PS 5% for 15 days; day 15
# Description: To determine the outcome of treatment, assessment of mechanical allodynia was performed. […] Both methods of assessing allodynia are described in Toma W, et al. Neuropharmacology 2017; 117:305-15. Mechanical and cold allodynia are determined at least one day apart in the same animal.
# The acetone test was used. Briefly, acetone was applied onto the plantar surface of each hind paw. The time each mouse spent licking, lifting, and/or shaking the hind paw recorded over 60 seconds was the score for cold allodynia. Measurements were performed on day-8 (before the first paclitaxel injection), the day of starting treatment (day 0) and then on day 15.
# [6] = test system: paclitaxel-induced CIPN in C57BL/6J mice; experiment: PWT (von Frey), mouse model of CIPN, oral administration (Example 5); type: in vivo; settings: day 7; oral gavage three times a day for 7 days, PS 50 mg/kg, sulindac 33 mg/kg
# Source text: CIPN was induced in mice with chemotherapeutic agents using established protocols (Carozzi et al, 2010; Currie et al, 2019; Eldridge et al, 2020). […] This dosing regimen of paclitaxel produces pain associated with CIPN with time courses that are similar to those of pain after paclitaxel administration in cancer patients.
# Group 1: naive mice (i.e. no paclitaxel, n=8) • 2. Group 2: paclitaxel only (n=8) • 3. Group 3: paclitaxel plus vehicle (n=8) • 4. […] Group 5: paclitaxel plus sulindac (n=8)
# The PWT test was performed on day 7.
# [7] = test system: chronic constriction injury-induced PTPN in C57BL/6J mice; experiment: PWT of operated limb, PS applied to contralateral hind paw, PTPN model (Example 8); type: in vivo, mouse
# Description: Group 2: vehicle control (n=6) • 3. Group 3: PS 8% (n=6)
# The PWT test was performed on day 4.
# Additionally, in a second study, the speed at which PS can treat pain associated with PTPN was assessed by assessing the effect of PS on mechanical allodynia shortly after topical administration of PS. As above, PTPN was induced using chronic constriction injury, by ligating the left sciatic nerve, to induce neuropathic pain manifested as allodynia affecting the left limb of the mice. PS (as a 5% gel) was applied only once onto the contralateral (right) hind paw of mice, prior to determining mechanical allodynia on the operated limb at different time points post-dosing.
# Group 2: PS 5%, assessed at t=0.5 h post-dosing (n=5) • 3. Group 3: PS 5%, assessed at t=1.0 h post-dosing (n=5) • 4. Group 4: PS 5%, assessed at t=2.0 h post-dosing (n=5)
# [8] = Pharmacokinetics and biodistribution of PS upon oral administration (Example 27); type: in vivo, rat; settings: rats, single oral dose of PS 250 mg/kg; for AUC(0-t) / Cmax / half-life: Sprague-Dawley, rat; for AUC(0-t): read-out: AUC0-24 h; for Cmax: read-out: Cmax, Mean ± SEM
# Description: Approximately 800 μL of blood were collected through cardiac puncture and immediately centrifuged.
# Tissue samples were harvested using separate dissection instruments for each tissue sample to avoid cross contamination, and snap frozen. The levels of the test drug were determined by HPLC.
# As previously described (Wen et al, 2019), each plasma sample was mixed with double volume of acetonitrile and centrifuged at 13,200 rpm for 15 min. Tissue samples were weighed, ddH2O (100-300 μL, depending on tissue weight) was added, and they were homogenized. Following addition of acetonitrile (twice the volume of the homogenate), the mixture was sonicated for 10 min, centrifuged at 13,200 rpm for 15 min, and analyzed by HPLC, as reported (Wen et al, 2019).
# Briefly, the HPLC system consisted of a Waters Alliance 2695 Separations Module (Milford, MA, USA) equipped with a Waters 2998 photodiode array detector (328 nm) and a Thermo Hypersil BDS C18 column (150×4.6 mm, particle size 3 pm). The mobile phase consisted of a gradient between solvent A (formic acid, CH3CN, H2O (0.1:4.9:95 v/v/v)) and solvent B (CH3CN) at a flow rate of 1 mL-min−1 at 30° C. We applied gradient elution from 30 to 100% solvent B from 0-6 min, and it was maintained at 100% solvent B until 8 min.
# [9] = Preliminary in vivo evidence, topical PS hydrogel, PHN (Example 19)
# [10] = Preliminary in vivo evidence, PS to the ocular surface, corneal neuropathic pain (Example 22); settings: topical PS to the ocular surface
# COX-1 = COX-1 (Homo sapiens, UniProt P23219); settings: background statement; cited from earlier work
# COX-2 = biological target: T1, COX-2 (Homo sapiens, UniProt P35354); settings: background statement; cited from earlier work
# T1 sequence (P35354 18-604): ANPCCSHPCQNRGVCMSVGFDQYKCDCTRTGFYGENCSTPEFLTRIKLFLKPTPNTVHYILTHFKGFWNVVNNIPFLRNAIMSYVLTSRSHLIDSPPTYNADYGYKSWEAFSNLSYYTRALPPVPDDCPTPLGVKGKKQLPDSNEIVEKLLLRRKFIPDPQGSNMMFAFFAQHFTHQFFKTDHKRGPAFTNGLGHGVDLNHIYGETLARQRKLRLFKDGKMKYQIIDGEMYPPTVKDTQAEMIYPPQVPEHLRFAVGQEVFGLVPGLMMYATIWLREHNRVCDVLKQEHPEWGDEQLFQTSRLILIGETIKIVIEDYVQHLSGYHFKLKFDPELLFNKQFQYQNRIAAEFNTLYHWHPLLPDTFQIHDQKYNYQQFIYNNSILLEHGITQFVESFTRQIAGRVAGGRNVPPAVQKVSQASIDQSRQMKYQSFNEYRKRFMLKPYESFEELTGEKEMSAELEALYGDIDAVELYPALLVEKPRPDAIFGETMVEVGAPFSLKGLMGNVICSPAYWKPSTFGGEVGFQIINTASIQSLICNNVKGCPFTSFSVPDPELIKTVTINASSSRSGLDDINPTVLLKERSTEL
# [11] = test system: NTG-induced migraine in mice; experiment: PWT (von Frey), NTG-induced migraine mouse model, oral (Example 14); settings: 30 min after oral dose given 30 min after NTG; PS 50 mg/kg, sulindac 33 mg/kg
# Description: In line with the earlier Examples, migraine was induced using 0.4 mg of NTG was administered sublingually in the form of a finely crushed 0.4 mg NTG tablet (Greenstone Brand).
# Group 1: baseline (i.e, no NTG treatment, n=6) • 2. Group 2: vehicle (n=6) • 3. […] Group 4: sulindac (n=6)
# Mechanical allodynia was determined using the method of von Frey filaments in line with that performed in the earlier Examples. […] The mechanical threshold, expressed as g, indicates the force of the von Frey filament to which the animal reacted.
# [12] = test system: chronic constriction injury-induced peripheral neuropathy in C57BL/6J mice; experiment: PWT (von Frey), chronic constriction injury model of PTPN, topical (Example 7); settings: day 14; PS 5% gel or sulindac 0.7% gel on left paw three times a day for 14 days; pregabalin once by oral gavage 1 h before
# Description: Group 1: ligation only (i.e, surgical control with no treatment, n=5-7) • 2. Group 2: vehicle control (n=5-7) • 3. […] Group 4: 0.7% sulindac (n=5-7) • 5.
# Briefly, for determining mechanical allodynia, pain threshold responses were measured using the well-established method of von Frey filaments in line with that performed in the earlier Examples. The PWT test was performed on day 14. The mechanical threshold, expressed as g, indicates the force of the von Frey filament to which the animal reacted.
# Sequence of COX-1 (P23219 24-599): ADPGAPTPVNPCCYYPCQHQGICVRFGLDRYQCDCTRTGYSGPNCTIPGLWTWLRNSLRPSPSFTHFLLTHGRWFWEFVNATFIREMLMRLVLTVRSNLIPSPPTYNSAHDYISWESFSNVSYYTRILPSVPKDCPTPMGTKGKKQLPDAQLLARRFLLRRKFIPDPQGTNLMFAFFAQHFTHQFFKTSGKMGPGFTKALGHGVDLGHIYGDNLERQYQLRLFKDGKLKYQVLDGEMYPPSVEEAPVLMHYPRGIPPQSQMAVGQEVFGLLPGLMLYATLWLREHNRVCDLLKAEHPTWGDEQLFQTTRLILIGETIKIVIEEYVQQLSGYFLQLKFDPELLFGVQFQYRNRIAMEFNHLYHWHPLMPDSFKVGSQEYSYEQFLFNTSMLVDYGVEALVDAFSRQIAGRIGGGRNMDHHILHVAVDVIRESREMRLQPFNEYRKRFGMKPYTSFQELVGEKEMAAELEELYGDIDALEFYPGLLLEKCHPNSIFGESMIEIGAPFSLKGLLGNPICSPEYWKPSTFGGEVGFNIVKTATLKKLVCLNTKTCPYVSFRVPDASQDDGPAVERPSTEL
smiles,measurement,setting,value
"CCOP(=O)(OCC)OCCCCOC(=O)CC1=C(C)/C(=C/c2ccc([S+](C)[O-])cc2)c2ccc(F)cc21 (stereo not shown) [PS, phosphosulindac]","mechanical allodynia score, mean±SEM","[1]; day 0 (initiation of treatment), paclitaxel-induced pain",0.79 ± 0.08 g
same,"mechanical allodynia score, mean±SEM","[1]; day 5, PS 8% ointment 3x/day to hind paws",1.17 ± 0.07 g
same,"mechanical allodynia score, mean±SEM","[1]; day 16, PS 8% ointment 3x/day to hind paws",2.49 ± 0.18 g
same,increase of allodynia score compared to day 0,[2]; PS 8% ointment 3x/day for 16 days,114%
same,"mechanical allodynia score, mean±SEM",[2]; day 16,1.5 ± 0.09 g
same,"mechanical allodynia score, mean±SEM","[3]; after PS treatment (day 22), PS 8% ointment 3x/day",1.8 ± 0.09 g
same,"mechanical allodynia score, mean±SEM",[3]; day -15 baseline of PS group,1.76 ± 0.13 g
same,topical or systemic side effects,[4],no topical or systemic side effects
same,cold allodynia score (acetone test),[5],3.1 ± 0.4 s
same,"PWT, g Mean ± SEM",[6],0.99 ± 0.13 g
same,"PWT, g Mean ± SEM","[7]; day 4, operated left limb, PS 8% gel on contralateral (right) hind paw 3 times a day for 4 days",1.16 ± 0.04 g
same,"PWT, g Mean ± SEM","[7]; t = 0.5 h post-dosing, PS 5% gel applied once on contralateral hind paw",1.24 ± 0.10 g
same,"PWT, g Mean ± SEM","[7]; t = 1.0 h post-dosing, PS 5% gel applied once on contralateral hind paw",1.16 ± 0.16 g
same,"PWT, g Mean ± SEM","[7]; t = 2.0 h post-dosing, PS 5% gel applied once on contralateral hind paw",1.10 ± 0.19 g
same,AUC(0-t),[8]; cerebellum,0.2 µM·h
same,Cmax,[8]; cerebellum,0.3 ± 0.07 µM
same,AUC(0-t),[8]; medulla,0.3 µM·h
same,Cmax,[8]; medulla,0.5 ± 0.1 µM
same,half-life,[8]; stomach,3.3 h
same,AUC(0-t),[8]; stomach,1280 µM·h
same,Cmax,[8]; stomach,661 ± 6.5 µM
same,half-life,[8]; vagus nerve,3.3 h
same,AUC(0-t),[8]; vagus nerve,1.7 µM·h
same,Cmax,[8]; vagus nerve,1.2 ± 0.2 µM
same,detection in the systemic circulation,[8],No PS was detected
same,analgesic effect on neuropathic pain associated with PHN,[9],striking analgesic effect
same,analgesic effect on corneal neuropathic pain,[10],striking analgesic effect
same,inhibition of COX-1,COX-1,does not inhibit
same,inhibition of COX-2,COX-2,does not inhibit
same,"PWT, g Mean ± SEM",[11],1.96 ± 0.49 g
same,"PWT, g Mean ± SEM",[12],1.30 ± 0.15 g
